Results on 22 compounds are retold here after ChEMBL document CHEMBL4308907, “Pyrrolidinone-bearing methylated and halogenated benzenesulfonamides as inhibitors of carbonic anhydrases” (Bioorg Med Chem, 2019).

For one assay, the target named is Carbonic anhydrase 2 (Homo sapiens, UniProt P00918). As to the kind of experiment: Binding affinity to recombinant human CA2 by DSF-based fluorescence thermal shift assay.
Another assay addresses Carbonic anhydrase 3 (Homo sapiens, UniProt P07451). As to the kind of experiment: Binding affinity to recombinant N-terminal His6x-tagged human CA3 (4 to 260 residues) expressed in Escherichia coli BL21(DE3) by DSF-based fluorescence thermal shift assay.
For assay [1], the target named is Carbonic anhydrase 5B, mitochondrial (Homo sapiens, UniProt Q9Y2D0). As to the kind of experiment: Binding affinity to recombinant full length N-terminal His6x-tagged human CA5B expressed in Escherichia coli Rosetta 2 (DE3) by DSF-based fluorescence thermal shift assay.
Carbonic anhydrase 5B, mitochondrial, sequence (Q9Y2D0 whole entry): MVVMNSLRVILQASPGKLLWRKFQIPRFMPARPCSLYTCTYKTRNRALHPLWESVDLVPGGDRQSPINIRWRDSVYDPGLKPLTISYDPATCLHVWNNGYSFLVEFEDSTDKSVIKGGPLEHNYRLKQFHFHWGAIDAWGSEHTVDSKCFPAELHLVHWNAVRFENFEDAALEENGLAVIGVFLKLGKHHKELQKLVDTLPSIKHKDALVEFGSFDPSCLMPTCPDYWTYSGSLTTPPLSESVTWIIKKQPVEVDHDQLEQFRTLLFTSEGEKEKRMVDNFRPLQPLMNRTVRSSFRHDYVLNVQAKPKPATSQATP
The target in the next assay is Carbonic anhydrase 6 (Homo sapiens, UniProt P23280). As to the kind of experiment: Binding affinity to recombinant human CA6 by DSF-based fluorescence thermal shift assay.
Carbonic anhydrase 6, sequence (P23280 whole entry): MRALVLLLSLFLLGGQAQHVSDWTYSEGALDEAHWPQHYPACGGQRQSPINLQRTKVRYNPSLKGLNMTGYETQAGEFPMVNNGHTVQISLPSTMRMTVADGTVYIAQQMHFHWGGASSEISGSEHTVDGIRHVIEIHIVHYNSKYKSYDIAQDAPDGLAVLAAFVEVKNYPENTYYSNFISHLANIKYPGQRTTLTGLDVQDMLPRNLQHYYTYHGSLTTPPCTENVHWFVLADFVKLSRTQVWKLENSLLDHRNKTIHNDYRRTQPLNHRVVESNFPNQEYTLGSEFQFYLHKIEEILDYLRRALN
The next assay concerns the target Carbonic anhydrase 12 (Homo sapiens, UniProt O43570). As to the kind of experiment: Binding affinity to recombinant human CA12 by DSF-based fluorescence thermal shift assay.
A further assay concerns the target Carbonic anhydrase 13 (Homo sapiens, UniProt Q8N1Q1). As to the kind of experiment: Binding affinity to recombinant human CA13 by DSF-based fluorescence thermal shift assay.
A further assay has as its target Carbonic anhydrase 9 (Homo sapiens, UniProt Q16790). The assay is described as follows: Binding affinity to recombinant human CA9 by DSF-based fluorescence thermal shift assay.
Another assay deals with Carbonic anhydrase 4 (Homo sapiens, UniProt P22748). As to the kind of experiment: Binding affinity to recombinant human CA4 by DSF-based fluorescence thermal shift assay.
Carbonic anhydrase 4, sequence (P22748 whole entry): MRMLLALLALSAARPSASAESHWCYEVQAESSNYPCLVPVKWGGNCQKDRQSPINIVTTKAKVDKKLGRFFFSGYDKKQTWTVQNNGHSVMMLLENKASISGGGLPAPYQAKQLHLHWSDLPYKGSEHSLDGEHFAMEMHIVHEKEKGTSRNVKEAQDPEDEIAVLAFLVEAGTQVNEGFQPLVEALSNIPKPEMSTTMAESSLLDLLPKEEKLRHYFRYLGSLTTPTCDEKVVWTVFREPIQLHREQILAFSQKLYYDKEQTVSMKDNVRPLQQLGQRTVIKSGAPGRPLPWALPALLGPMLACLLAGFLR
The target in the next assay is Carbonic anhydrase 1 (Homo sapiens, UniProt P00915). As to the kind of experiment: Binding affinity to recombinant human CA1 by DSF-based fluorescence thermal shift assay.
Carbonic anhydrase 1, sequence (P00915 whole entry): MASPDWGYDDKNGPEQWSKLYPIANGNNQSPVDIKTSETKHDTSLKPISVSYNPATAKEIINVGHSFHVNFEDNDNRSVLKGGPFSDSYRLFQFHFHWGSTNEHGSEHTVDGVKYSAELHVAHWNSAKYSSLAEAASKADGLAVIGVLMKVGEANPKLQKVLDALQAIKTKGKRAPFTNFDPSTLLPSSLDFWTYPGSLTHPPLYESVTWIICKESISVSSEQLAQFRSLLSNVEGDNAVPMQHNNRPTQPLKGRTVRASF
A further assay addresses Carbonic anhydrase 7 (Homo sapiens, UniProt P43166). The assay is described as follows: Binding affinity to recombinant human CA7 by DSF-based fluorescence thermal shift assay.

Some results are limits rather than exact numbers.

Carbonic anhydrase 12, sequence (O43570 whole entry): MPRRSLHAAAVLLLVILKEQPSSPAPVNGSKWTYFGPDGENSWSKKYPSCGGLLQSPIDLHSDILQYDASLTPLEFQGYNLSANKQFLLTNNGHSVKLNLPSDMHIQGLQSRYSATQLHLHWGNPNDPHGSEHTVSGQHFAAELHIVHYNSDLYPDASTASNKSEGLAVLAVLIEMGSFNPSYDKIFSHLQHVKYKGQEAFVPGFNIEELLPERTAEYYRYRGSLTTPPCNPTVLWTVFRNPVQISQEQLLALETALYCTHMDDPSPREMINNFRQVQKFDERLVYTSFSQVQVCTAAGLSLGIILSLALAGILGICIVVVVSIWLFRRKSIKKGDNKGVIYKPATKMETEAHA
Carbonic anhydrase 3, sequence (P07451 whole entry, the tested form may be a part): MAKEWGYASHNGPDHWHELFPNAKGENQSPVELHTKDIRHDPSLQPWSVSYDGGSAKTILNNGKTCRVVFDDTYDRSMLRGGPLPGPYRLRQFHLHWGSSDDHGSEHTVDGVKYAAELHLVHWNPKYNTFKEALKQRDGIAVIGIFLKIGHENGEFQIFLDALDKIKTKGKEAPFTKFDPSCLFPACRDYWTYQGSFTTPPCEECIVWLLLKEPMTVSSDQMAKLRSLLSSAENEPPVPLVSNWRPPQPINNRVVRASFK
Carbonic anhydrase 7, sequence (P43166 whole entry): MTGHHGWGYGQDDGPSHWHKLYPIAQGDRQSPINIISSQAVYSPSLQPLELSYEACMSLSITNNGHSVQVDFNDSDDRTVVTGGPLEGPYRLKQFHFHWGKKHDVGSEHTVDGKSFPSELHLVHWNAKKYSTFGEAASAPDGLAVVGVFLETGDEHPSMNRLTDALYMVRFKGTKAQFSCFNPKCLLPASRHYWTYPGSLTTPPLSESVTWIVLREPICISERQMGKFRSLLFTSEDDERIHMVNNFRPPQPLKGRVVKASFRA
Carbonic anhydrase 13, sequence (Q8N1Q1 whole entry): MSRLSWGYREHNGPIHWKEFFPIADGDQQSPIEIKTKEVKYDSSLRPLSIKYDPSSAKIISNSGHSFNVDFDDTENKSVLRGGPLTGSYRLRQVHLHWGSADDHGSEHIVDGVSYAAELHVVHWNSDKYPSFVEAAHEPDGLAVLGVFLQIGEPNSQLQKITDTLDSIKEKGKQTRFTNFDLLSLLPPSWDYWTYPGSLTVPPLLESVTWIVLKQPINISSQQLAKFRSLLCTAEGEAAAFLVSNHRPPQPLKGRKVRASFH

Consider `Cc1cc(C)cc(NC(=O)C2CC(=O)N(c3ccccc3)C2)c1` (stereo not given), for which the Kd (at Carbonic anhydrase 2; on Carbonic anhydrase 3; in assay [1]; on Carbonic anhydrase 6; on Carbonic anhydrase 12; at Carbonic anhydrase 13) was at least 200 µM each time. Moreover, the dissociation constant Kd at Carbonic anhydrase 9, at Carbonic anhydrase 4 and at Carbonic anhydrase 1 was at least 200 µM each time.
On to `Cc1c(Br)c(N2CC(C(=O)NN)CC2=O)c(Br)c(C)c1S(N)(=O)=O` (stereo not given), for which the Kd (at Carbonic anhydrase 7; at Carbonic anhydrase 2; at Carbonic anhydrase 3; in assay [1]; on Carbonic anhydrase 6; on Carbonic anhydrase 12) was at least 200 µM in each case. Moreover, the Kd at Carbonic anhydrase 13, on Carbonic anhydrase 9, on Carbonic anhydrase 4 and on Carbonic anhydrase 1 was at least 200 µM each time.
In the case of `COC(=O)C1CC(=O)N(c2cc(C)c(S(N)(=O)=O)c(C)c2)C1` (stereo not given), the Kd (as a rule, the concentration at which binding is half-saturated) on Carbonic anhydrase 7 is 3.4 µM; on Carbonic anhydrase 2 it was 2 µM; on Carbonic anhydrase 3 it was at least 200 µM; in [1], at least 200 µM; at Carbonic anhydrase 6, 50 µM; on Carbonic anhydrase 13, 2 µM. The results for the Kd at Carbonic anhydrase 9, on Carbonic anhydrase 4 and on Carbonic anhydrase 1 were 3 µM, 6.7 µM and 1.5 µM, respectively.
As for `COc1ccc(/C=N/NC(=O)C2CC(=O)N(c3cc(C)c(S(N)(=O)=O)c(C)c3Cl)C2)cc1` (stereo not given), the Kd on Carbonic anhydrase 7 is 0.016 µM; at Carbonic anhydrase 2, 0.056 µM; on Carbonic anhydrase 3 it was at least 200 µM; in assay [1], 0.0032 µM; on Carbonic anhydrase 6, 0.59 µM; at Carbonic anhydrase 13, 0.05 µM. The Kd on Carbonic anhydrase 9 stood at 0.077 µM; on Carbonic anhydrase 4, 0.18 µM; at Carbonic anhydrase 1 it was 0.71 µM.
With `Cc1cc(NC(=O)C2CC(=O)N(c3ccccc3)C2)cc(C)c1S(N)(=O)=O` (stereo not given), the Kd at Carbonic anhydrase 7 was 8.3 µM; at Carbonic anhydrase 3 it was at least 200 µM; on Carbonic anhydrase 6 it was 45 µM; at Carbonic anhydrase 12 it was at least 200 µM; on Carbonic anhydrase 13, 3.9 µM; at Carbonic anhydrase 4 it was 6.8 µM. Also, the Kd at Carbonic anhydrase 1 came to 1.6 µM.
Consider `Cc1cc(N2CC(c3n[nH]c(=S)o3)CC2=O)c(Cl)c(C)c1S(N)(=O)=O` (stereo not given), for which the Kd on Carbonic anhydrase 7 was 0.13 µM; on Carbonic anhydrase 2, 0.1 µM; on Carbonic anhydrase 3 it was at least 200 µM; in assay [1], 0.25 µM; on Carbonic anhydrase 6, 3.3 µM; on Carbonic anhydrase 13, 0.1 µM. Besides, the Kd at Carbonic anhydrase 9 worked out at 0.067 µM; at Carbonic anhydrase 1, 0.83 µM.
In the case of `Cc1cc(C)n(NC(=O)C2CC(=O)N(c3cc(C)c(S(N)(=O)=O)c(C)c3Cl)C2)n1` (stereo not given), the Kd at Carbonic anhydrase 7 stood at 0.025 µM; on Carbonic anhydrase 2 it was 0.02 µM; in assay [1] it was 0.1 µM; on Carbonic anhydrase 6 it was 3.3 µM; at Carbonic anhydrase 12, 2 µM; on Carbonic anhydrase 13 it was 0.01 µM. Besides, the Kd on Carbonic anhydrase 9 is 0.1 µM; at Carbonic anhydrase 1, 1.1 µM.
Consider `NS(=O)(=O)c1ccc(NC(=O)C2CC(=O)N(c3cccc(Br)c3)C2)cc1` (stereo not given), for which the Kd is 0.17 µM on Carbonic anhydrase 7; 0.19 µM at Carbonic anhydrase 2; at least 200 µM at Carbonic anhydrase 3; 0.74 µM in [1]; 2.4 µM at Carbonic anhydrase 6; 10 µM on Carbonic anhydrase 12. For the same compound, the Kd at Carbonic anhydrase 13 turned out to be 1.1 µM; on Carbonic anhydrase 9, 0.056 µM; on Carbonic anhydrase 4, 0.81 µM; at Carbonic anhydrase 1, 0.31 µM.
Turning to `Cc1cc(N2CC(C(=O)NNC(=S)Nc3ccccc3)CC2=O)c(Cl)c(C)c1S(N)(=O)=O` (stereo not given), the Kd turned out to be 0.1 µM on Carbonic anhydrase 7; 0.032 µM on Carbonic anhydrase 2; 0.2 µM in assay [1]; 2.2 µM on Carbonic anhydrase 6; 0.36 µM on Carbonic anhydrase 12; 0.014 µM on Carbonic anhydrase 13. Moreover, the figures for the Kd at Carbonic anhydrase 9 and on Carbonic anhydrase 1 were 0.1 µM and 0.36 µM, respectively.
Consider `Cc1cc(NCC(CC(=O)O)c2n[nH]c(=S)n2-c2ccccc2)cc(C)c1S(N)(=O)=O` (stereo not given), for which the Kd was at least 200 µM at Carbonic anhydrase 7; 100 µM on Carbonic anhydrase 2; at least 200 µM in assay [1]; at least 200 µM at Carbonic anhydrase 6; 50 µM on Carbonic anhydrase 12; 33 µM at Carbonic anhydrase 13. Also, the Kd was at least 200 µM at Carbonic anhydrase 4 and 100 µM on Carbonic anhydrase 1.
As to `COC(=O)C1CC(=O)N(c2cc(C)c(S(N)(=O)=O)c(C)c2Cl)C1` (stereo not given), the Kd was 0.013 µM at Carbonic anhydrase 7; 0.029 µM at Carbonic anhydrase 2; at least 200 µM at Carbonic anhydrase 3; 0.025 µM in [1]; 4.8 µM on Carbonic anhydrase 6; 0.014 µM on Carbonic anhydrase 13. The Kd turned out to be 0.1 µM at Carbonic anhydrase 9, 1 µM at Carbonic anhydrase 4 and 0.67 µM at Carbonic anhydrase 1.
With `Cc1c(Br)c(N2CC(C(=O)N/N=C/c3ccccc3)CC2=O)c(Br)c(C)c1S(N)(=O)=O` (stereo not given), the Kd (on Carbonic anhydrase 7; on Carbonic anhydrase 2; at Carbonic anhydrase 3; in assay [1]; on Carbonic anhydrase 6; at Carbonic anhydrase 12) was at least 200 µM throughout. Further, the Kd at Carbonic anhydrase 13, at Carbonic anhydrase 9, at Carbonic anhydrase 4 and on Carbonic anhydrase 1 was at least 200 µM throughout.
Take `NS(=O)(=O)c1ccc(NC(=O)C2CC(=O)N(c3ccccc3)C2)cc1` (stereo not given): the Kd at Carbonic anhydrase 7 was 0.11 µM; on Carbonic anhydrase 2, 0.088 µM; at Carbonic anhydrase 3, at least 200 µM; in assay [1] it was 0.55 µM; at Carbonic anhydrase 6 it was 3.6 µM; on Carbonic anhydrase 12, 5.6 µM. For the same compound, the Kd at Carbonic anhydrase 13 was determined as 0.66 µM; on Carbonic anhydrase 9, 0.053 µM; on Carbonic anhydrase 4, 0.85 µM; on Carbonic anhydrase 1, 0.26 µM.
`Cc1cc(C)n(C(=O)C2CC(=O)N(c3cc(C)c(S(N)(=O)=O)c(C)c3Cl)C2)n1` (stereo not given): the Kd on Carbonic anhydrase 7 is 0.02 µM; at Carbonic anhydrase 2, 0.025 µM; on Carbonic anhydrase 3, at least 200 µM; in assay [1] it was 0.013 µM; on Carbonic anhydrase 6, 3.3 µM; on Carbonic anhydrase 12 it was 1 µM. In addition, the results for the Kd at Carbonic anhydrase 9 and at Carbonic anhydrase 1 were 0.14 µM and 0.25 µM, respectively.
For the compound `Cc1cc(NCC(CC(=O)O)c2n[nH]c(=S)n2-c2ccccc2)c(Cl)c(C)c1S(N)(=O)=O` (stereo not given), the Kd was 7.7 µM on Carbonic anhydrase 7; 17 µM at Carbonic anhydrase 2; 10 µM in [1]; 10 µM on Carbonic anhydrase 6; 2.5 µM on Carbonic anhydrase 12; 1.4 µM on Carbonic anhydrase 13. For the same compound, the results for the equilibrium dissociation constant (Kd) on Carbonic anhydrase 9, on Carbonic anhydrase 4 and at Carbonic anhydrase 1 were 1 µM, 10 µM and 40 µM, respectively.
In the case of `Cc1cc(N2CC(c3n[nH]c(=S)n3-c3ccccc3)CC2=O)c(Cl)c(C)c1S(N)(=O)=O` (stereo not given), the Kd was 0.0087 µM on Carbonic anhydrase 7; 0.033 µM on Carbonic anhydrase 2; at least 200 µM on Carbonic anhydrase 3; 0.04 µM in [1]; 3.1 µM at Carbonic anhydrase 6; 0.5 µM on Carbonic anhydrase 12. The Kd at Carbonic anhydrase 13 is 0.017 µM; on Carbonic anhydrase 9 it was 0.089 µM; at Carbonic anhydrase 1, 0.44 µM.
`COC(=O)C1CC(=O)N(c2c(Br)c(C)c(S(N)(=O)=O)c(C)c2Br)C1` (stereo not given): the Kd (on Carbonic anhydrase 7; at Carbonic anhydrase 2; on Carbonic anhydrase 3; in assay [1]; on Carbonic anhydrase 6; at Carbonic anhydrase 12) was at least 200 µM throughout. Moreover, the equilibrium dissociation constant (Kd) at Carbonic anhydrase 13, on Carbonic anhydrase 9, at Carbonic anhydrase 4 and on Carbonic anhydrase 1 was at least 200 µM throughout.
`NS(=O)(=O)c1ccc(NC(=O)C2CC(=O)N(c3ccccc3Br)C2)cc1` (stereo not given): the Kd at Carbonic anhydrase 7 was 0.051 µM; at Carbonic anhydrase 2 it was 0.087 µM; at Carbonic anhydrase 3 it was at least 200 µM; in assay [1] it was 0.19 µM; on Carbonic anhydrase 6 it was 3.7 µM; on Carbonic anhydrase 12 it was 3.5 µM. The Kd was determined as 0.2 µM at Carbonic anhydrase 13, 0.038 µM on Carbonic anhydrase 9, 0.4 µM on Carbonic anhydrase 4 and 0.21 µM on Carbonic anhydrase 1.
As for `Cc1cc(S(N)(=O)=O)c(C)cc1N1CC(C(=O)N/N=C/c2ccc([N+](=O)[O-])cc2)CC1=O` (stereo not given), the Kd at Carbonic anhydrase 7 is 1.3 µM; on Carbonic anhydrase 2, 2.1 µM; on Carbonic anhydrase 3 it was at least 200 µM; in assay [1], 0.028 µM; at Carbonic anhydrase 6 it was 9.9 µM; on Carbonic anhydrase 12 it was 14 µM. Also, the Kd at Carbonic anhydrase 13 is 0.32 µM; on Carbonic anhydrase 9, 1.1 µM; at Carbonic anhydrase 4, 17 µM; at Carbonic anhydrase 1, 6.2 µM.
Regarding `Cc1c(Br)c(N2CC(C(=O)N/N=C/c3ccc([N+](=O)[O-])cc3)CC2=O)c(Br)c(C)c1S(N)(=O)=O` (stereo not given), the Kd on Carbonic anhydrase 2, at Carbonic anhydrase 12, at Carbonic anhydrase 13 and at Carbonic anhydrase 1 was at least 200 µM each time.
On to `NS(=O)(=O)c1ccc(NC(=O)C2CC(=O)N(c3ccc(Br)cc3)C2)cc1` (stereo not given), for which the Kd at Carbonic anhydrase 7 was 1.5 µM; on Carbonic anhydrase 2, 0.64 µM; on Carbonic anhydrase 3, at least 200 µM; in assay [1] it was 3.8 µM; at Carbonic anhydrase 6, 17 µM; on Carbonic anhydrase 12 it was 39 µM. In addition, the Kd amounted to 3.1 µM at Carbonic anhydrase 13, 0.43 µM on Carbonic anhydrase 9, 5.6 µM at Carbonic anhydrase 4 and 3.3 µM on Carbonic anhydrase 1.
Take `Cc1c(Br)c(N2CC(C(=O)O)CC2=O)c(Br)c(C)c1S(N)(=O)=O` (stereo not given): the Kd (at Carbonic anhydrase 7; at Carbonic anhydrase 2; at Carbonic anhydrase 3; in assay [1]; on Carbonic anhydrase 6; at Carbonic anhydrase 12) was at least 200 µM each time. The Kd at Carbonic anhydrase 13, at Carbonic anhydrase 9, at Carbonic anhydrase 4 and at Carbonic anhydrase 1 was at least 200 µM throughout.
